The test system of data set [1] is MOPr-VACC inhibition in dorsal root ganglia (DRG) neurons. Description: cells. In kind it is cell-based, mouse. To be noted: for Emax: read-out: Emax (% inhibition), VACC inhibition; for IC50: read-out: IC50, VACC inhibition.
The subject of data set [2] is VACCs in DRG neurons. Briefly: Voltage-dependent component of agonist-VACC inhibition (high-voltage pre-pulse). In kind it is cell-based, mouse. Conditions: normalized to each agonist's inhibition.
Data set [3] concerns MOPr-VACC inhibition in DRG neurons. In kind it is cell-based, mouse.
Data set [4] has as its target Mu opioid receptor (MOPr) of the competitive binding assays (UniProt P42866).
The test system of data set [5] is drug preference. Briefly: Conditioned place preference in pain-naive mice. In kind it is in vivo, mouse.
Data set [6] concerns the target FAP-tagged MOPr in HEK cells (Homo sapiens, UniProt P35372). Briefly: cell-based. The format is cell-based. Conditions: for Emax: Emax (% background), internalization.
Data set [7] has as its system carrageenan-induced thermal hyperalgesia. Description: Thermal withdrawal thresholds (Hargreaves) after i.pl. carrageenan. In kind it is in vivo, mouse.
The target in data set [8] is MOPr (mMOR-Venus) / βarr2-luciferase (Mus musculus, UniProt P42866). Briefly: cell-based.
Sequence of MOPr (mMOR-Venus) / βarr2-luciferase (P32121 whole entry): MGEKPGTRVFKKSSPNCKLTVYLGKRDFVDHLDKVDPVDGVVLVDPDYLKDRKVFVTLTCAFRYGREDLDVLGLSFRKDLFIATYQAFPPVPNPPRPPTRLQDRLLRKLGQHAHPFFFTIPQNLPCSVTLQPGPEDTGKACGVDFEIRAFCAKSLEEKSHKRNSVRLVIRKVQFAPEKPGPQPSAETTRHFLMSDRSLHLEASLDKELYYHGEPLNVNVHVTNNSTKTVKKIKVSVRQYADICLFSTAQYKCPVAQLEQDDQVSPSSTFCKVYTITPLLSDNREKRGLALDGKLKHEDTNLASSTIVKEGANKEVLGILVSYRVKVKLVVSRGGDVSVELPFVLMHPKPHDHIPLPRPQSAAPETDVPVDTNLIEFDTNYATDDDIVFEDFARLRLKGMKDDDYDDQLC
Sequence of MOPr (mMOR-Venus) / βarr2-luciferase (P42866 whole entry): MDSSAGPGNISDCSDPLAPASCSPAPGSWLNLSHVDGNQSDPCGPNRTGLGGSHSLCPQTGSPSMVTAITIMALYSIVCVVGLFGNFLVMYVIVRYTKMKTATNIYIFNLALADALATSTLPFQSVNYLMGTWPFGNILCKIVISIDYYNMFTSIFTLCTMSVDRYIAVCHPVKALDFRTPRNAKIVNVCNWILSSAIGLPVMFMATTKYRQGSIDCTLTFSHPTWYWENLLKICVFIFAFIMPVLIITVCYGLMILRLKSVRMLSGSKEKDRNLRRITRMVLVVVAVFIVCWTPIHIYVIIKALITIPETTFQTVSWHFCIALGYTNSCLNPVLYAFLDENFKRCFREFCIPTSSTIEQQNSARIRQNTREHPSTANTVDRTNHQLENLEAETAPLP
Data set [9] relates to VACCs in DRG neurons lacking βarr1. Description: VACC inhibition in DRG neurons of βarr1-knockout mice. In kind it is cell-based, mouse. To be noted: βarr1-knockout vs WT DRG neurons; NKTR-181 30 μM.
For data set [10], the target named is T1, MOPr (Mus musculus, UniProt P42866).
T1 construct: expressed in transfected cells; host or cells: HEK293
T1 sequence (P42866 whole entry): as above
In kind it is cell-based.

In data set [11] the test system is thermal nociception. Briefly: Thermal withdrawal thresholds (Hargreaves) after i.pl. vehicle. In kind it is in vivo, mouse. Conditions: 3 mg/kg i.pl., mice.
Data set [12] concerns the target MOPr (mMOR-Venus) / Gαi-luciferase (Mus musculus, UniProt P42866). Description: cell-based. In kind it is cell-based.
Data set [13] has as its target MOPr (mMOR-Venus) / βarr1-luciferase (Mus musculus, UniProt P42866). Briefly: cell-based. The format is cell-based.
The target of data set [14] is T2, MOR (recombinant human receptor) (Homo sapiens, UniProt P35372).
T2 construct: host or cells: CHO-K1 membranes
T2 sequence (P35372 whole entry): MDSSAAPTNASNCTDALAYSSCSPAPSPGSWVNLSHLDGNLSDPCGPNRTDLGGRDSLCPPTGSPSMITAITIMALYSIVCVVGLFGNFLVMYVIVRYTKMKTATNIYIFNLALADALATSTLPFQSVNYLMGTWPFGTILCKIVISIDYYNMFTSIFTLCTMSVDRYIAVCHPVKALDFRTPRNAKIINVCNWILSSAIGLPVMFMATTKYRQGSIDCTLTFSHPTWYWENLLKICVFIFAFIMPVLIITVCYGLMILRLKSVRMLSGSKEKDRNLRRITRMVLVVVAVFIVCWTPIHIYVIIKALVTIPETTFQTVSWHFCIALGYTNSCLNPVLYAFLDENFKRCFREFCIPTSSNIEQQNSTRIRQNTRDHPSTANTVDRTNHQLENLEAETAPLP
The format is binding. To be noted: calculated as t1/2 = 0.69/koff.

The test system of data set [15] is drug-seeking behavior. Briefly: Intravenous self-administration (IVSA), FR10 schedule. In kind it is in vivo, Sprague–Dawley rats. Conditions: for number of reinforcers obtained vs saline: FR10, rats.
The subject of data set [16] is carrageenan-induced place aversion. Description: Carrageenan-induced conditioned place aversion. The format is in vivo, mouse. To be noted: 1 mg/kg i.pl., male mice.
The target in data set [17] is T3, mMOR-Venus (mu opioid receptor, Venus-tagged) (mouse (from the label mMOR), UniProt P42866 1-398).
T3 construct: mu opioid receptor (MOPr), printed as mMOR; BRET acceptor; 'm' in mMOR is read as mouse; also called MOPr-venus; MOPr; source: HEK293, transfected (FuGENE 6), in live cells
T3 sequence (P42866 whole entry): as the sequence (P42866 whole entry) above
Description: FRET or BRET; live HEK293 cells co-transfected with mMOR-Venus (acceptor) and Renilla Luciferase8-tagged β-arrestin-1, β-arrestin-2 or Gαi (donor; Gαi with untagged Gβγ fusion); agonist added at 0 nM-100 μM (DAMGO, NKTR-181, oxycodone, morphine, fentanyl); coelenterazine h 4.5 μM; 30°C; netBRET as percent of the maximum DAMGO response, four-parameter fit. To be noted: partners not purified. (Bioluminescence resonance energy transfer reports proximity on the nanometre scale.)

Where two headings read alike, the source gives them in different places.

Sequence of MOPr (mMOR-Venus) / βarr1-luciferase (P42866 whole entry, one chain of several): as the sequence (P42866 whole entry) above
Sequence of FAP-tagged MOPr in HEK cells (P35372 whole entry): as the sequence (P35372 whole entry) above
Sequence of MOPr (mMOR-Venus) / Gαi-luciferase (P63096 whole entry): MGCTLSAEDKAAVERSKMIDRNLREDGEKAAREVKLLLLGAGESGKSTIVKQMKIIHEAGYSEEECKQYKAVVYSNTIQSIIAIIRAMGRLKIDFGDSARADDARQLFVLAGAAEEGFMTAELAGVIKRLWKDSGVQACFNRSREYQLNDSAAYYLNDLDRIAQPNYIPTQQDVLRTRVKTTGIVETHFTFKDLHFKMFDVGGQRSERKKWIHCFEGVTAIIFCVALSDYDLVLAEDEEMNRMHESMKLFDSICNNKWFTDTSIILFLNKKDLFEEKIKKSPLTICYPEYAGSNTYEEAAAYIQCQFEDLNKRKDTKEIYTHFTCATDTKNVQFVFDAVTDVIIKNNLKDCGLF
Sequence of MOPr (mMOR-Venus) / Gαi-luciferase (P42866 whole entry): as the sequence (P42866 whole entry) above
Sequence of MOPr (mMOR-Venus) / Gαi-luciferase (P59768 whole entry, further chain): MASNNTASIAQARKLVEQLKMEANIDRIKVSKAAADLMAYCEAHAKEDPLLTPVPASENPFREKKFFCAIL
Sequence of MOPr (mMOR-Venus) / Gαi-luciferase (P62873 whole entry, further chain): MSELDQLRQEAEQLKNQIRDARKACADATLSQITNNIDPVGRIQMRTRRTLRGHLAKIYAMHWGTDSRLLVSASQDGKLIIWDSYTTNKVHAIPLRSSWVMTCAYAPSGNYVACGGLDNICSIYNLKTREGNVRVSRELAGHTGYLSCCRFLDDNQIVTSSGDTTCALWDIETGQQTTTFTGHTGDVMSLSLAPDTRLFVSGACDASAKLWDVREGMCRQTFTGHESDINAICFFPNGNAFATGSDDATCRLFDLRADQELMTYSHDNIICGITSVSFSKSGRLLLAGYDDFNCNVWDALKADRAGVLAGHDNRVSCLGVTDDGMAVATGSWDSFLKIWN
Sequence of Mu opioid receptor (MOPr) of the competitive binding assays (P42866 whole entry): as the sequence (P42866 whole entry) above

Regarding `CN1CC[C@]23c4c5ccc(O)c4O[C@H]2[C@@H](O)C=C[C@H]3[C@H]1C5` [Morphine, morphine], the Emax in data set [1] (Mus musculus, DRG neuron) is 33 ± 6%. Also, the “voltage-dependent component of VACC inhibition” value in data set [2] was “predominantly inhibit VACCs by a voltage-dependent mechanism”. Further, the “rapid desensitization (loss of VACC inhibition)” value in data set [3] is recorded as “greater desensitization than NKTR-181”.
As for “[D-Ala^2, N-MePhe^4, Gly-ol]-enkephalin (peptide)”, in data set [4], the Emax (% inhibition) of VACCs in cultured adult mouse DRG neurons, whole-cell patch clamp is 41 % inhibition and the IC50 of inhibition of voltage-activated calcium channel currents (VACCs) in cultured adult mouse DRG neurons, whole-cell patch clamp was determined as 228 nM.
In the case of `COc1ccc2c3c1O[C@H]1C(=O)CC[C@@]4(O)[C@@H](C2)N(C)CC[C@]314` [Oxycodone, oxycodone], the conditioned place preference entry in data set [5] (1 mg/kg i.pl.) is “did not produce a place preference in either male or female mice”. The conditioned place preference entry in data set [5] (3 mg/kg i.pl.) is “produced a place preference in both sexes”. For the same molecule, the “MOPr internalization, dose-dependence and comparison” value in data set [6] was “did not result in a dose-dependent effect and could not be curve-fitted at any timepoint”. In addition, in data set [7] (1 mg/kg i.pl., mice), the “reversal of carrageenan-induced hyperalgesia” value is reported as “did not reverse carrageenan-induced hyperalgesia”. Also, the “thermal withdrawal thresholds following i.pl. carrageenan” value in data set [7] (3 mg/kg i.pl., mice) is “increased withdrawal thresholds following i.pl. carrageenan”. Also, the “time to reach peak levels of effect” value in [7] (antinociception / anti-hyperalgesia, carrageenan model, 10 min was the earliest timepoint measured) is 10 min. In addition, in data set [7] (higher dose (oxycodone 3 mg/kg, NKTR-181 100 mg/kg), male vs female mice), the “sex difference in anti-hyperalgesia” value is “No sex differences were evident”. Besides, in data set [8], the EC50 – broadly, the concentration needed to bring the measured effect to its halfway point – is 100 nM and the “σ (transduction coefficient), β-arr2 recruitment” value was −0.17 ± 0.05. Moreover, in [1] (Mus musculus, DRG neuron), the Emax came to 34 ± 10% and the IC50 – broadly, the concentration at which inhibition is half-maximal – was 1700 nM. Besides, the “requirement of βarr1 for full VACC inhibition” value in data set [9] is on record as “require βarr1 to obtain full VACC inhibition”. For the same molecule, in data set [10], the “Bias factor Gαi vs βarr1” value is on record as −0.14 ± 0.07, the “Bias factor Gαi vs βarr2” value amounted to 0.17 ± 0.08 and the “Bias factor βarr1 vs βarr2” value was determined as 0.32 ± 0.06. Further, the “thermal withdrawal thresholds following i.pl. vehicle” value in [11] was “increased withdrawal thresholds following i.pl. vehicle”. In addition, in data set [12], the EC50 is 355 nM and the “σ (transduction coefficient), Gαi recruitment” value amounted to 0.006 ± 0.07. In addition, in [12] (HEK293, read-out: Emax, Gαi recruitment), the Emax was 62.5 ± 0.9%. The “voltage-dependent component of VACC inhibition” value in data set [2] was “predominantly inhibit VACCs by a voltage-dependent mechanism”. Further, in data set [13], the response was half-maximal at 389 nM (EC50) and the “σ (transduction coefficient), β-arr1 recruitment” value came out at 0.07 ± 0.05. In addition, the Emax in data set [13] (HEK293, read-out: Emax, β-arr1 recruitment) is 63.9 ± 0.8%. Also, the “dissociation half-life t1/2” value in data set [14] is 1.25 min. Further, the “number of reinforcers obtained vs saline” value in [15] (0.1 mg/kg/infusion) is “no difference”. The “number of reinforcers obtained vs saline” value in [15] (0.01 and 0.032 mg/kg/infusion) is reported as “higher”. In [15] (across the three doses of each drug, rats), the “total amount of drug infused over the hour-long session” value was “increase in the total amount of drug infused across all doses”. Moreover, in [3], the “rapid desensitization (loss of VACC inhibition)” value was “limited desensitization”. Moreover, the carrageenan-induced place aversion entry in data set [16] is given as “prevented place aversion”.
For `C[C@@H](NC(=O)[C@@H](N)Cc1ccc(O)cc1)C(=O)NCC(=O)N(C)[C@@H](Cc1ccccc1)C(=O)NCCO` [DAMGO, [D-Ala^2, N-MePhe^4, Gly-ol]-enkephalin], the Emax in data set [6] (HEK293, read-out: 30 min) worked out at 78 ± 6%. For the same molecule, the Emax in data set [6] (HEK293, read-out: 60 min) is 72 ± 7%. For the same molecule, the “σ (transduction coefficient), β-arr2 recruitment” value in data set [8] is listed as 0. Besides, in data set [1], the “Emax (% inhibition), VACC inhibition” value came out at 41 ± 4 % inhibition and the IC50 is 228 nM. In data set [10], the “Bias factor Gαi vs βarr1” value was “Unbiased”, the “Bias factor Gαi vs βarr2” value is on record as “Unbiased” and the “Bias factor βarr1 vs βarr2” value is “Unbiased”. In addition, the “σ (transduction coefficient), Gαi recruitment” value in data set [12] came out at 0. Further, the “voltage-dependent component of VACC inhibition” value in data set [2] is given as “predominantly inhibit VACCs by a voltage-dependent mechanism”. For the same molecule, the “σ (transduction coefficient), β-arr1 recruitment” value in [13] is given as 0. In data set [3], the “rapid desensitization (loss of VACC inhibition)” value is given as “greater desensitization than NKTR-181”.

B1: β-arrestin-1-Renilla Luciferase8 (natural protein, UniProt P49407 1-418, looked up)
chain: MGDKGTRVFKKASPNGKLTVYLGKRDFVDHIDLVDPVDGVVLVDPEYLKERRVYVTLTCAFRYGREDLDVLGLTFRKDLFVANVQSFPPAPEDKKPLTRLQERLIKKLGEHAYPFTFEIPPNLPCSVTLQPGPEDTGKACGVDYEVKAFCAENLEEKIHKRNSVRLVIRKVQYAPERPGPQPTAETTRQFLMSDKPLHLEASLDKEIYYHGEPISVNVHVTNNTNKTVKKIKISVRQYADICLFNTAQYKCPVAMEEADDTVAPSSTFCKVYTLTPFLANNREKRGLALDGKLKHEDTNLASSTLLREGANREILGIIVSYKVKVKLVVSRGGLLGDLASSDVAVELPFTLMHPKPKEEPPHREVPENETPVDTNLIELDTNDDDIVFEDFARQRLKGMKDDKEEEEDGTGSPQLNNR
notes: β-arrestin-1; BRET donor; also called βarr1; β-arr1; source: HEK293, transfected (FuGENE 6), in live cells
For the molecule B1, in [17], the “LogEC50 of the agonist DAMGO for the recruitment” value was -6.94 ± 0.09 log M, the “LogEC50 of the agonist NKTR-181 for the recruitment” value was -6.45 ± 0.12 log M, the “LogEC50 of the agonist fentanyl for the recruitment” value was -8 ± 0.12 log M and the “LogEC50 of the agonist morphine for the recruitment” value is -6.3 ± 0.18 log M. The “LogEC50 of the agonist oxycodone for the recruitment” value in data set [17] is -6.41 ± 0.12 log M.
